Measurements taken from PMC9138505, “Small Molecule 20S Proteasome Enhancer Regulates MYC Protein Stability and Exhibits Antitumor Activity in Multiple Myeloma” (Biomedicines, 2022).
Several values for one entry are separate records, joined by “and”; a condition that tells them apart may be missing. Equal entries are not always repeated.

Tested on: RPMI-8226 cells
Experiment: Gene expression profiling, NanoString nCounter PanCancer Pathways Panel, ROSALIND analysis
Format: cell-based, human
Details: RPMI-8226, TCH-165 samples 1-3
Protocol: RPMI-8226 cells were treated with vehicle or TCH-165 (10 μM) for 4 h. Total RNA was obtained using the mirVana miRNA Isolation Kit, with phenol (Thermofisher Scientific; AM1560; Waltham, MA, USA). Total RNA was quantified by Qubit (Thermofisher Scientific; Q32855; Waltham, MA, USA). and gene expression was evaluated against the nCounter® PanCancer Pathways Panel^TM according to the standard NanoString protocol.
Data were analyzed by ROSALIND® [36] with a hyperscale architecture developed by ROSALIND, Inc. (San Diego, CA, USA). Normalization, fold changes and p-values were calculated using criteria provided by NanoString. ROSALIND follows the nCounter® Advanced Analysis protocol of dividing counts within a lane by the geometric mean of the normalizer probes from the same lane. Housekeeping probes to be used for normalization are selected based on the geNorm algorithm, as implemented in the NormqPCR R library. Fold changes and p-values are calculated using the fast method as described in the nCounter Advanced Analysis 2.0 User Manual. The p-value adjustment is performed using the Benjamini–Hochberg method of estimating false discovery rates (FDR). Clustering of genes for the final heatmap of differentially expressed genes was done using the PAM (Partitioning Around Medoids) method using the fpc R library. Hypergeometric distribution was used to analyze the enrichment of pathways, gene ontology, domain structure and other ontologies. The topGO R library was used to determine local similarities and dependencies between GO terms in order to perform Elim pruning correction. Several database sources were referenced for enrichment analysis, including Interpro [40], NCBI [41], MSigDB [42, 43], REACTOME [44], WikiPathways. Enrichment was calculated relative to a set of background genes relevant to the experiment.

`CCOC(=O)[C@]1(c2ccccc2)N=C(c2ccc(OC)cc2)N(Cc2ccccc2)[C@@H]1c1ccc(NCc2ccccc2)cc1` [TCH-165] was tested, and the “CDKN2A normalized gene expression” value was 7.059 and 6.817 and 7.045, the “CDKN2B normalized gene expression” value was 5.827 and 5.402 and 5.787 and the “CDKN2C normalized gene expression” value was 2.401 and 2.3768 and 2.653. For the same compound, the “CDKN2D normalized gene expression” value was 6.667 and 6.808 and 7.091, the “CEBPA normalized gene expression” value was 4.308 and 4.029 and 4.291 and the “CEBPE normalized gene expression” value was 3.723 and 3.739 and 3.291. For the same compound, the “CHAD normalized gene expression” value was 4.986 and 5.093 and 4.805, the “CHEK1 normalized gene expression” value was 9.816 and 9.813 (2×) and the “CHEK2 normalized gene expression” value was 8.6438 and 8.491 and 8.618. The “CHUK normalized gene expression” value was 8.745 and 8.67 and 8.685, the “CIC normalized gene expression” value was 6.793 and 6.427 and 6.731 and the “CLCF1 normalized gene expression” value was 3.723 and 4.2133 and 3.184. For the same compound, the “CNTFR normalized gene expression” value was 4.723 and 5.093 and 4.653, the “COL1A1 normalized gene expression” value was 4.649 and 4.524 and 3.943 and the “COL1A2 normalized gene expression” value was 3.401 and 3.154 and 4.0068. For the same compound, the “COL2A1 normalized gene expression” value was 6.015 and 6.817 and 6.494, the “COL3A1 normalized gene expression” value was 4.86 and 4.093 and 4.731 and the “COL4A3 normalized gene expression” value was 6.182 and 5.798 and 6.156. For the same compound, the “COL4A4 normalized gene expression” value was 3.208 and 3.739 and 4.613, the “COL4A5 normalized gene expression” value was 4.571 and 3.962 and 3.876 and the “COL4A6 normalized gene expression” value was 3.208 and 3.476 and 3.0682. The “COL5A1 normalized gene expression” value was 6.156 and 5.3768 and 5.823, the “COL5A2 normalized gene expression” value was 4.649 and 4.524 and 4.184 and the “COL11A1 normalized gene expression” value was 4.793 and 4.029 and 4.184. The “COL11A2 normalized gene expression” value was 3.571 and 3.029 and 2.483, the “COMP normalized gene expression” value was 3.571 and 4.093 and 4.0682 and the “CREB5 normalized gene expression” value was 6.467 and 6.324 and 6.437. The “CREBBP normalized gene expression” value was 5.488 and 4.855 and 5.156, the “CSF1R normalized gene expression” value was 3.401 and 3.739 and 3.653 and the “CSF2 normalized gene expression” value was 3.86 and 4.029 and 3.291. The “CSF3R normalized gene expression” value was 4.571 and 3.962 and 4.39, the “CSF3 normalized gene expression” value was 4.208 and 3.739 and 3.805 and the “CTNNB1 normalized gene expression” value was 11.1942 and 11.0314 and 10.9756. The “CUL1 normalized gene expression” value was 11.4237 and 11.3932 and 11.3628, the “CXCL8 normalized gene expression” value was 7.908 and 8.053 and 8.0531 and the “CYLD normalized gene expression” value was 9.829 and 9.692 and 9.711. The “DAXX normalized gene expression” value was 9.74 and 9.747 and 9.706, the “DDB2 normalized gene expression” value was 8.97 and 9.039 and 9.005 and the “DDIT3 normalized gene expression” value was 11.9124 and 11.8557 and 11.855. The “DDIT4 normalized gene expression” value was 9.959 and 9.961 and 9.982, the “DKK1 normalized gene expression” value was 5.259 and 4.699 and 4.769 and the “DKK2 normalized gene expression” value was 5.488 and 4.657 and 4.805. The “DKK4 normalized gene expression” value was 4.986 and 4.855 and 4.975, the “DLL1 normalized gene expression” value was 4.308 and 4.029 and 3.5707 and the “DLL3 normalized gene expression” value was 5.101 and 4.427 and 4.5707. The “DLL4 normalized gene expression” value was 5.401 and 4.817 and 5.211, the “DNMT1 normalized gene expression” value was 10.7929 and 10.7224 and 10.7359 and the “DNMT3A normalized gene expression” value was 7.355 and 7.311 and 7.414. For the same compound, the “DTX1 normalized gene expression” value was 5.156 and 5.402 and 5.592, the “DTX4 normalized gene expression” value was 5.793 and 5.996 and 5.9095 and the “DUSP2 normalized gene expression” value was 6.378 and 6.364 and 6.623. The “DUSP4 normalized gene expression” value was 7.667 and 7.581 and 7.494, the “DUSP5 normalized gene expression” value was 10.8611 and 10.8321 and 10.8236 and the “DUSP6 normalized gene expression” value was 8.008 and 8.128 and 8.003. For the same compound, the “DUSP8 normalized gene expression” value was 6.876 and 6.44 and 6.56, the “DUSP10 normalized gene expression” value was 7.221 and 7.177 and 7.1906 and the “E2F1 normalized gene expression” value was 9.135 and 9.126 and 9.063. For the same compound, the “E2F5 normalized gene expression” value was 9.349 and 9.291 and 9.221, the “EFNA1 normalized gene expression” value was 6.283 and 5.2133 and 5.39 and the “EFNA2 normalized gene expression” value was 4.924 and 5.2133 and 5.0068. The “EFNA3 normalized gene expression” value was 8.052 and 8.008 and 8.0531, the “EFNA5 normalized gene expression” value was 5.649 and 4.739 and 4.943 and the “EGF normalized gene expression” value was 4.86 and 4.569 and 5.0682. The “EGFR normalized gene expression” value was 5.892 and 5.524 and 5.461, the “EIF4EBP1 normalized gene expression” value was 10.6929 and 10.6602 and 10.7353 and the “ENDOG normalized gene expression” value was 9.908 and 9.9873 and 9.891. The “EP300 normalized gene expression” value was 9.491 and 9.463 and 9.424, the “EPHA2 normalized gene expression” value was 3.208 and 2.891 and 1.805 and the “EPO normalized gene expression” value was 5.101 and 4.324 and 4.483. For the same compound, the “EPOR normalized gene expression” value was 7.259 and 7.147 and 7.1271, the “ERBB2 normalized gene expression” value was 6.044 and 5.427 and 5.291 and the “ERCC2 normalized gene expression” value was 6.924 and 6.657 and 6.5707. The “ERCC6 normalized gene expression” value was 6.509 and 6.581 and 6.5707, the “ETS2 normalized gene expression” value was 9.802 and 9.726 and 9.794 and the “ETV1 normalized gene expression” value was 9.48 and 9.485 and 9.458. For the same compound, the “ETV4 normalized gene expression” value was 7.978 and 7.949 and 7.741, the “ETV7 normalized gene expression” value was 4.723 and 4.962 and 4.528 and the “EYA1 normalized gene expression” value was 7.74 and 7.85 and 7.863. For the same compound, the “EZH2 normalized gene expression” value was 10.3563 and 10.2507 and 10.2954, the “FANCA normalized gene expression” value was 7.073 and 6.808 and 7.015 and the “FANCB normalized gene expression” value was 7.62 and 7.291 and 7.576. The “FANCC normalized gene expression” value was 7.86 and 7.614 and 7.764, the “FANCE normalized gene expression” value was 7.61 and 7.608 and 7.587 and the “FANCF normalized gene expression” value was 8.337 and 8.334 and 8.268. The “FANCG normalized gene expression” value was 7.571 and 7.364 and 7.478, the “FANCL normalized gene expression” value was 8.9359 and 8.968 and 8.918 and the “FAS normalized gene expression” value was 6.723 and 6.719 and 6.613. The “FASLG normalized gene expression” value was 5.044 and 4.614 and 4.769, the “FEN1 normalized gene expression” value was 11.0932 and 10.9634 and 10.9666 and the “FGF1 normalized gene expression” value was 4.723 and 4.524 and 5.098.
